IC50 data for 24 compounds are collected here from ChEMBL document CHEMBL1201861, “Genomics of Drug Sensitity in Cancer screening data, Wellcome Trust Sanger Institute”.

By IC50 is commonly meant the concentration that inhibits the measured activity by half. A lower IC50 goes with inhibition by little substance.

Structures are written as SMILES.

One assay concerns NCI-H250. The experiment in a line: SANGER: Inhibition of human NCI-H250 cell growth in a cell viability assay. The class given is functional, cell-based.
The subject of the next assay is NCI-H378. The experiment in a line: SANGER: Inhibition of human NCI-H378 cell growth in a cell viability assay. The assay is classed as functional, cell-based.
The next assay relates to TC-YIK. The experiment in a line: SANGER: Inhibition of human TC-YIK cell growth in a cell viability assay. The assay is classed as functional, cell-based.
For the next assay, the system named is DMS-53. Put plainly: cells. The class given is functional, cell-based, Homo sapiens.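 Note: cell viability assay measuring growth inhibition of human DMS-53 cells.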
In the next assay the test system is C-4-II. Put plainly: SANGER: Inhibition of human C-4-II cell growth in a cell viability assay. The assay is classed as functional, cell-based.
The subject of a further assay is NCI-H1975. Put plainly: cells. The assay is classed as functional, cell-based. The settings on record: Homo sapiens.
In a further assay the test system is Caov-4. Put plainly: cells. The assay is classed as functional, cell-based. The conditions noted are these: Homo sapiens.
Another assay deals with SK-MEL-5. Put plainly: SANGER: Inhibition of human SK-MEL-5 cell growth in a cell viability assay. The assay is classed as functional, cell-based.
In another assay the test system is SK-MG-1. Put plainly: SANGER: Inhibition of human SK-MG-1 cell growth in a cell viability assay. The class given is functional, cell-based.
The subject of the next assay is NCI-H2107. The experiment in a line: SANGER: Inhibition of human NCI-H2107 cell growth in a cell viability assay. The class given is functional, cell-based.
The subject of a further assay is CRO-AP2. The experiment in a line: SANGER: Inhibition of human CRO-AP2 cell growth in a cell viability assay. The class given is functional, cell-based.
The next assay concerns CP67-MEL. Put plainly: SANGER: Inhibition of human CP67-MEL cell growth in a cell viability assay. The assay is classed as functional, cell-based.
The test system of a further assay is KP-N-RT-BM-1. Put plainly: SANGER: Inhibition of human KP-N-RT-BM-1 cell growth in a cell viability assay. The assay is classed as functional, cell-based.

Description for Caov-4: SANGER: Inhibition of human Caov-4 cell growth in a cell viability assay.
Description for DMS-53: SANGER: Inhibition of human DMS-53 cell growth in a cell viability assay.
Description for NCI-H1975: SANGER: Inhibition of human NCI-H1975 cell growth in a cell viability assay.

Regarding `C=C1C(=O)O[C@@H]2C3O[C@]3(C)CC/C=C(\C)CC[C@@H]12` (stereo partly specified), the IC50 with NCI-H250, in the assay with NCI-H378 and with TC-YIK was above 5000 nM in each case.

With `COC(=O)CNC(=O)C(=O)OC`, the IC50 in the assay on DMS-53 (Homo sapiens, DMS-53) is 181000 nM; in the assay with C-4-II it was 552000 nM.

The compound `CN(C)C/C=C/C(=O)Nc1cc2c(Nc3ccc(F)c(Cl)c3)ncnc2cc1O[C@H]1CCOC1` [AFATINIB] gave an IC50 in the assay with NCI-H1975 above 500 nM.

Consider `Cc1cc([C@@H](C)Nc2ccccc2C(=O)O)c2nc(N3CCOCC3)cc(=O)n2c1` [AZD-6482], for which the IC50 in the assay with Caov-4 is above 5120 nM; in the assay on DMS-53 (Homo sapiens, DMS-53), above 5120 nM; in the assay on DMS-53 (dms-53), above 5120 nM; with NCI-H1975, above 5120 nM; in the assay on SK-MEL-5, above 5120 nM; in the assay with SK-MG-1, above 5120 nM. Moreover, the IC50 in the assay with C-4-II was above 5120 nM.

In the assay with NCI-H1975, `O=C(NOCC1CC1)c1ccc(F)c(F)c1Nc1ccc(I)cc1Cl` [CI-1040] registered an IC50 of 6470 nM.

On to `CC1=C2C[C@H]3[C@@H](CC=C4C[C@@H](O)CC[C@@]43C)[C@@H]2CC[C@]12O[C@@H]1C[C@H](C)CN[C@H]1[C@H]2C` [CYCLOPAMINE], for which the IC50 in the assay on NCI-H2107 is above 16000 nM.

In the case of `Nc1ccn([C@@H]2O[C@H](CO)[C@@H](O)[C@@H]2O)c(=O)n1` [CYTARABINE], the IC50 in the assay with NCI-H1975 was above 2000 nM.

Regarding `COc1cc([C@@H]2c3cc4c(cc3[C@@H](O[C@@H]3O[C@@H]5CO[C@@H](C)O[C@H]5[C@H](O)[C@H]3O)[C@H]3COC(=O)[C@H]23)OCO4)cc(OC)c1O` [ETOPOSIDE], the IC50 in the assay with Caov-4 is above 16000 nM; in the assay on DMS-53 (Homo sapiens, DMS-53), above 16000 nM; in the assay on C-4-II, 1710 nM.

On to `Cc1cnc(-c2cnc(NCCNc3ccc(C#N)cn3)nc2-c2ccc(Cl)cc2Cl)[nH]1` [LADUVIGLUSIB], for which the IC50 in the assay on Caov-4 was above 2560 nM; in the assay with DMS-53 (Homo sapiens, DMS-53), above 2560 nM; in the assay with C-4-II, above 2560 nM.

Consider `CS(=O)(=O)CCNCc1ccc(-c2ccc3ncnc(Nc4ccc(OCc5cccc(F)c5)c(Cl)c4)c3c2)o1` [LAPATINIB], for which the IC50 in the assay with NCI-H2107 is above 2000 nM.

Turning to `C[C@]1(O)C[C@@H](c2nc(-c3ccc4ccc(-c5ccccc5)nc4c3)c3c(N)nccn32)C1` [LINSITINIB], the IC50 is above 2560 nM in the assay on DMS-53 (Homo sapiens, DMS-53) and above 2560 nM with C-4-II.

Consider `C=CCc1cccc(/C=N/NC(=O)CN2CCN(Cc3ccccc3)CC2)c1O` [PAC-1], for which the IC50 with DMS-53 (Homo sapiens, DMS-53) is above 2560 nM; in the assay with C-4-II, above 2560 nM.

As for `Cc1ccc(Nc2nccc(N(C)c3ccc4c(C)n(C)nc4c3)n2)cc1S(N)(=O)=O` [PAZOPANIB], the IC50 in the assay with DMS-53 (Homo sapiens, DMS-53) was above 8000 nM; in the assay with C-4-II, above 8000 nM.

Consider `CN(c1ncccc1CNc1nc(Nc2ccc3c(c2)CC(=O)N3)ncc1C(F)(F)F)S(C)(=O)=O` [PF-00562271], for which the IC50 in the assay on Caov-4 was above 2560 nM; in the assay with DMS-53 (Homo sapiens, DMS-53), above 2560 nM; in the assay with C-4-II it was above 2560 nM.

As to `CCc1nc(N)nc(N)c1-c1ccc(Cl)cc1` [PYRIMETHAMINE], the IC50 was 18700 nM in the assay on CRO-AP2 and above 20000 nM in the assay with NCI-H2107.

`O=C(/C=C/c1ccccc1)NC(NC(=S)Nc1cccc2cccnc12)C(Cl)(Cl)Cl` (stereo unspecified) [SALUBRINAL] had an IC50 with NCI-H2107 above 16000 nM.

Consider `CN1CCN(CCOc2cc(OC3CCOCC3)c3c(Nc4c(Cl)ccc5c4OCO5)ncnc3c2)CC1` [SARACATINIB], for which the IC50 in the assay with CP67-MEL, in the assay on CRO-AP2, with KP-N-RT-BM-1 and with NCI-H2107 was above 2000 nM in each case.

`Cn1cc(C2=C(c3ccc(Cl)cc3Cl)C(=O)NC2=O)c2ccccc21` [SB-216763] came in with an IC50 in the assay on NCI-H1975 above 10000 nM.

`CO[C@H]1C[C@@H]2CC[C@@H](C)[C@@](O)(O2)C(=O)C(=O)N2CCCC[C@H]2C(=O)O[C@H]([C@H](C)C[C@@H]2CC[C@@H](O)[C@H](OC)C2)CC(=O)[C@H](C)/C=C(\C)[C@@H](O)[C@@H](OC)C(=O)[C@H](C)C[C@H](C)/C=C/C=C/C=C/1C` [SIROLIMUS]: the IC50 with CP67-MEL, with KP-N-RT-BM-1 and in the assay on TC-YIK was above 100 nM each time.

As for `CNC(=O)c1cc(Oc2ccc(NC(=O)Nc3ccc(Cl)c(C(F)(F)F)c3)cc2)ccn1` [SORAFENIB], the IC50 in the assay with CRO-AP2 and with NCI-H2107 was above 4000 nM throughout.

As for `Cn1cncc1[C@@](N)(c1ccc(Cl)cc1)c1ccc2c(c1)c(-c1cccc(Cl)c1)cc(=O)n2C` [TIPIFARNIB], the IC50 was above 16000 nM with DMS-53 (Homo sapiens, DMS-53) and 6140 nM in the assay with C-4-II.

Turning to `CCC(=O)N1CCN(c2ccc(-n3c(=O)ccc4cnc5ccc(-c6cnc7ccccc7c6)cc5c43)cc2C(F)(F)F)CC1` [TORIN1], the IC50 is 37.6 nM with CP67-MEL, above 1200 nM in the assay on KP-N-RT-BM-1 and 1170 nM with NCI-H2107.

`Cc1cc(Nc2cc(N3CCN(C)CC3)nc(Sc3ccc(NC(=O)C4CC4)cc3)n2)n[nH]1` [TOZASERTIB]: the IC50 in the assay on CP67-MEL, in the assay on KP-N-RT-BM-1 and in the assay on NCI-H2107 was above 2000 nM throughout.

Consider `CCC1=C[C@@H]2CN(C1)Cc1c([nH]c3ccccc13)[C@@](C(=O)OC)(c1cc3c(cc1OC)N(C)[C@H]1[C@@](O)(C(=O)OC)[C@H](OC(C)=O)[C@]4(CC)C=CCN5CC[C@]31[C@@H]54)C2` [VINORELBINE], for which the IC50 in the assay on Caov-4 is above 64 nM; in the assay on DMS-53 (Homo sapiens, DMS-53) it was above 64 nM; with C-4-II, 23 nM.
